# Results published in ChEMBL document CHEMBL3232855, “The discovery of N-((2H-tetrazol-5-yl)methyl)-4-((R)-1-((5r,8R)-8-(tert-butyl)-3-(3,5-dichlorophenyl)-2-oxo-1,4-diazaspiro[4.5]dec-3-en-1-yl)-4,4-dimethylpentyl)benzamide (SCH 900822): a potent and selective glucagon receptor antagonist” (J Med Chem, 2014).
# Calls of active or inactive are those of the source. No cut-off for these calls is given here.
# How the values were obtained:
# [1] = biological target: Kappa-type opioid receptor (Homo sapiens) (UniProt P41145); assay: Binding affinity to kappa opioid receptor (unknown origin) at 10 uM by agonist displacement assay relative to control
# [2] = biological target: T1, Glucagon receptor (Homo sapiens, UniProt P47871); assay: Antagonist activity at human GCGR expressed in CHO cells assessed as inhibition of glucagon-stimulated cAMP production preincubated for 30 mins followed by glucagon induction measured after 45 mins by LANCE assay; type: functional, cell-based
# [3] = biological target: T1, Glucagon receptor; assay: biochemical; type: cell-based, CHO
# Description: Displacement of [125I]-glucagon from recombinant human GCGR expressed in CHO cells after 60 mins by scintillation counting analysis
# [4] = biological target: Glucagon receptor (Mus musculus, UniProt Q61606); type: cell membranes, Liver, Membrane
# Description: Displacement of [125I]-glucagon from GCGR in mouse liver membranes after 60 mins by scintillation counting analysis
# [5] = biological target: Glucagon-like peptide 1 receptor (Homo sapiens, UniProt P43220); assay: Antagonist activity at human GLP-1R expressed in CHO cells assessed as inhibition of GLP-1-stimulated cAMP production preincubated for 30 mins followed by GLP-1 induction measured after 45 mins by LANCE assay; type: functional, cell-based
# [6] = Plasma clearance in mouse at 3 mg/kg, iv; type: ADME, organism-based; parameters: dose 3 mg/kg, route intravenous
# [7] = Plasma clearance in rat at 3 mg/kg, iv; type: ADME, organism-based; parameters: dose 3 mg/kg, route intravenous
# [8] = Plasma clearance in dog at 1 mg/kg, iv; type: ADME, organism-based, Canis lupus familiaris; parameters: dose 1 mg/kg, route intravenous
# [9] = Plasma clearance in monkey at 3 mg/kg, iv; type: ADME, organism-based, Macaca mulatta; parameters: dose 3 mg/kg, route intravenous; conditions: rhesus monkey
# [10] = Volume of distribution at steady state in mouse at 3 mg/kg, iv; type: ADME, organism-based; parameters: dose 3 mg/kg, route intravenous; conditions: in vivo, read-out: Vdss
# [11] = Volume of distribution at steady state in rat at 3 mg/kg, iv; type: ADME, organism-based; parameters: dose 3 mg/kg, route intravenous; conditions: in vivo, read-out: Vdss
# [12] = Volume of distribution at steady state in dog at 1 mg/kg, iv; type: ADME, organism-based, Canis lupus familiaris; parameters: dose 1 mg/kg, route intravenous; conditions: in vivo, read-out: Vdss
# [13] = Volume of distribution at steady state in monkey at 3 mg/kg, iv; type: ADME, organism-based, Macaca mulatta; parameters: dose 3 mg/kg, route intravenous; conditions: rhesus monkey, in vivo, read-out: Vdss
# [14] = Half life in mouse at 3 mg/kg, iv; type: ADME, organism-based; parameters: dose 3 mg/kg, route intravenous; conditions: in vivo
# [15] = Half life in rat at 3 mg/kg, iv; type: ADME, organism-based; parameters: dose 3 mg/kg, route intravenous; conditions: in vivo
# [16] = Half life in dog at 1 mg/kg, iv; type: ADME, organism-based, Canis lupus familiaris; parameters: dose 1 mg/kg, route intravenous; conditions: in vivo
# [17] = Half life in monkey at 3 mg/kg, iv; type: ADME, organism-based, Macaca mulatta; parameters: dose 3 mg/kg, route intravenous; conditions: rhesus monkey, in vivo
# [18] = tested on: Mus musculus; assay: Dose-normalized AUC in mouse at 3 mg/kg, po; type: ADME, organism-based; parameters: dose 3 mg/kg, route oral; conditions: in vivo
# [19] = tested on: Rattus norvegicus; assay: Dose-normalized AUC in rat at 3 mg/kg, po; type: ADME, organism-based; parameters: dose 3 mg/kg, route oral; conditions: in vivo
# [20] = tested on: Canis familiaris; assay: Dose-normalized AUC in dog at 5 mg/kg, po; type: ADME, organism-based, Canis lupus familiaris; parameters: dose 5 mg/kg, route oral; conditions: in vivo
# [21] = tested on: Rhesus monkey; assay: Dose-normalized AUC in monkey at 3 mg/kg, po; type: ADME, organism-based, Macaca mulatta; parameters: dose 3 mg/kg, route oral; conditions: in vivo
# [22] = Oral bioavailability in mouse at 3 mg/kg; type: ADME, organism-based; conditions: in vivo
# [23] = Oral bioavailability in rat at 3 mg/kg; type: ADME, organism-based; conditions: in vivo
# [24] = Oral bioavailability in dog at 5 mg/kg; type: ADME, organism-based, Canis lupus familiaris; conditions: in vivo
# [25] = Oral bioavailability in monkey at 3 mg/kg; type: ADME, organism-based, Macaca mulatta; conditions: rhesus monkey, in vivo
# [26] = biological target: T2, Adenosine receptor A3 (Homo sapiens, UniProt P0DMS8); assay: Binding affinity to adenosine A3 receptor (unknown origin) by agonist displacement assay
# T2 sequence (P0DMS8 whole entry): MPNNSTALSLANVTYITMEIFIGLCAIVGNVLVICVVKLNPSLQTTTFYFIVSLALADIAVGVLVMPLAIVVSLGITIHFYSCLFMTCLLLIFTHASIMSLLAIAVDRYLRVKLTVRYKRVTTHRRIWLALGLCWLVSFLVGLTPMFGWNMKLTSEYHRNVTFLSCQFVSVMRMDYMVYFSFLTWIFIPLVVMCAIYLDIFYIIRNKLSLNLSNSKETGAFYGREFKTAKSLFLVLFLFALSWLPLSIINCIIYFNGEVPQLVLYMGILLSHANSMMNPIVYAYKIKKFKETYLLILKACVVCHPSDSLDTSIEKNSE
# [27] = biological target: T3, Gastric inhibitory polypeptide receptor (Homo sapiens, UniProt P48546); assay: Antagonist activity at human GIPR assessed as inhibition of cAMP production; type: functional
# T3 sequence (P48546 whole entry): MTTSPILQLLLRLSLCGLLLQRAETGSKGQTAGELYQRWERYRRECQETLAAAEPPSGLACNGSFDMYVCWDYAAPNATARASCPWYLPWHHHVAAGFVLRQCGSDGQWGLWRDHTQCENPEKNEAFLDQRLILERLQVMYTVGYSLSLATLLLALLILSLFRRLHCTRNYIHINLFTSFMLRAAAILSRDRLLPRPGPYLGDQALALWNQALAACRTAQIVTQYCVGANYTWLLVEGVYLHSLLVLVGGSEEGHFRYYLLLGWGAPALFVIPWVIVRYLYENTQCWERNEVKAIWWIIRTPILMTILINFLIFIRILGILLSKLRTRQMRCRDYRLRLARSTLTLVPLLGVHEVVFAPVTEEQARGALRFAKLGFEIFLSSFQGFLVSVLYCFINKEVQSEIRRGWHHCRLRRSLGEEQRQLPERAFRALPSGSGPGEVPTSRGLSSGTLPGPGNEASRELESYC
# [28] = tested on: Mus musculus; assay: Antidiabetic activity in diet-induced obese ICR mouse model assessed as decrease in fasting blood glucose level at 3 to 10 mg/kg, po measured at 4 hrs by glucometer; type: functional, organism-based
# [29] = tested on: Mus musculus; assay: Antidiabetic activity in diet-induced obese ICR mouse model assessed as decrease in nonfasting blood glucose level at 3 to 10 mg/kg, po measured at 24 hrs by glucometer; type: functional, organism-based
# [30] = Plasma concentration in diet-induced obese ICR mouse model at 3 mg/kg, po measured at 24 hrs by HPLC/MS/MS analysis; type: ADME, organism-based; parameters: dose 3 mg/kg, route oral
# [31] = tested on: Mus musculus; assay: Antidiabetic activity in streptozotocin-induced ICR mouse type-2 diabetic model assessed as decrease in fasting blood glucose level at 30 mg/kg, po measured at 8 hrs by glucometer relative to vehicle-treated control; type: functional, organism-based; parameters: dose 30 mg/kg
# [32] = Plasma concentration in streptozotocin-induced ICR mouse type-2 diabetic model at 3 mg/kg, po measured at 8 hrs by HPLC/MS/MS analysis; type: ADME, organism-based; parameters: dose 3 mg/kg, route oral
# [33] = Plasma concentration in streptozotocin-induced ICR mouse type-2 diabetic model at 10 mg/kg, po measured at 8 hrs by HPLC/MS/MS analysis; type: ADME, organism-based; parameters: dose 10 mg/kg, route oral
# [34] = Plasma concentration in streptozotocin-induced ICR mouse type-2 diabetic model at 30 mg/kg, po measured at 8 hrs by HPLC/MS/MS analysis; type: ADME, organism-based; parameters: dose 30 mg/kg, route oral
# [35] = tested on: Mus musculus; assay: Toxicity in streptozotocin-induced ICR mouse type-2 diabetic model assessed as effect on body weight at 3 to 30 mg/kg, po after 24 hrs; type: organism-based; parameters: dose 3-30 mg/kg, route oral; conditions: in vivo
# [36] = tested on: Mus musculus; assay: Antidiabetic activity in diet-induced obese ICR mouse model assessed as inhibition of glucagon-induced glucose excursion at 10 to 30 mg/kg, po bid measured for 60 mins by glucometer; type: functional, organism-based
# [37] = biological target: T4, Adenosine receptor A3 (Homo sapiens) (UniProt P0DMS8); conditions: 10 uM
# T4 sequence (whole entry): T2 sequence (P0DMS8 whole entry)
# Description: Binding affinity to adenosine A3 receptor (unknown origin) at 10 uM by agonist displacement assay relative to control
# T1 sequence (P47871 whole entry): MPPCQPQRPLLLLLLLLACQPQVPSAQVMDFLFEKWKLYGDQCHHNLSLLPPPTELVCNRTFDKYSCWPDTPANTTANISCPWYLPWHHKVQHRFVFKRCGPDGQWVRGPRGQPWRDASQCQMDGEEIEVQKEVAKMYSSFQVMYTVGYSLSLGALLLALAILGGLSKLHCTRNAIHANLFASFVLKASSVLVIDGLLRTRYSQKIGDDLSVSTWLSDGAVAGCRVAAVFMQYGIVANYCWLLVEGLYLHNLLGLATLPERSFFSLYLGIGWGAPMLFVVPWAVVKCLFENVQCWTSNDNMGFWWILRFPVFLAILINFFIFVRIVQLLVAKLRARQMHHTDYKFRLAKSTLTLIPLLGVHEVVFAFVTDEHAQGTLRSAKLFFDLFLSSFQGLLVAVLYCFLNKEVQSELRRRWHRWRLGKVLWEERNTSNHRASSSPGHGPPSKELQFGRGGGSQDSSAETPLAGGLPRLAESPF
# Chain of Glucagon-like peptide 1 receptor (P43220 whole entry): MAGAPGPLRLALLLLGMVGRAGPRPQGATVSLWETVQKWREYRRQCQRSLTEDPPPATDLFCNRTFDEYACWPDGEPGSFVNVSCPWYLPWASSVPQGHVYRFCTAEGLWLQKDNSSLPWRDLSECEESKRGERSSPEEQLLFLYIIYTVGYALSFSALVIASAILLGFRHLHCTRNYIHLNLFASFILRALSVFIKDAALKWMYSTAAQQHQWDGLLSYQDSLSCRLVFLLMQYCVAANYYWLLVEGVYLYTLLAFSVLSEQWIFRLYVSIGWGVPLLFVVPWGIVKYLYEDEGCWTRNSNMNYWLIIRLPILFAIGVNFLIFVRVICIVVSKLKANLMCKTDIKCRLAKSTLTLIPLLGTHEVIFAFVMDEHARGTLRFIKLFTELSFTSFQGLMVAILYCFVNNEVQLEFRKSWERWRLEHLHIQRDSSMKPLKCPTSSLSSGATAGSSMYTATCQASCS
# Chain of Kappa-type opioid receptor (Homo sapiens) (P41145 whole entry): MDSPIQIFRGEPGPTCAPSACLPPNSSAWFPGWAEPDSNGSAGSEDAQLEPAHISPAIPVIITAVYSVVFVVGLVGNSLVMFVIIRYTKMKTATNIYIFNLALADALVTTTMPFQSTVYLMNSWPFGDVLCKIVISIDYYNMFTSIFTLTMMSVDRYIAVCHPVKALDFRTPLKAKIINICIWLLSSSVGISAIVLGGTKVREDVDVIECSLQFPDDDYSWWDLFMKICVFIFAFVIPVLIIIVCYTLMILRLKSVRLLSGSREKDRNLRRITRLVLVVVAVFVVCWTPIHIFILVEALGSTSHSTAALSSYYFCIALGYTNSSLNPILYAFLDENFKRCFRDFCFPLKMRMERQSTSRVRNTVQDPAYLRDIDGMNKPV
# Chain of Glucagon receptor (Mus musculus, UniProt Q61606) (Q61606 whole entry): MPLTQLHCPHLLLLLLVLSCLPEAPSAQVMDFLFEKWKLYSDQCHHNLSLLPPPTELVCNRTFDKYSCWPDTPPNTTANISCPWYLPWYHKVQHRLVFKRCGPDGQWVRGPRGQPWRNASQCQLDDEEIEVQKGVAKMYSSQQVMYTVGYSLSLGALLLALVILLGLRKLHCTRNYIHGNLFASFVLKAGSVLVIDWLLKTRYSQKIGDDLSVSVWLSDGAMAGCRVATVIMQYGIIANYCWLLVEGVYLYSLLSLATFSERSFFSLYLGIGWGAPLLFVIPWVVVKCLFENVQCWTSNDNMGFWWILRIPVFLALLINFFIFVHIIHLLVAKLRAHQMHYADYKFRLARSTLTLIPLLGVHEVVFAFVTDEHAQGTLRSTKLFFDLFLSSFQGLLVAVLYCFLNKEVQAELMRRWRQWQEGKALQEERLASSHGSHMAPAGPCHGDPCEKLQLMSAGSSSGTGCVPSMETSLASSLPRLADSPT
smiles,measurement,setting,value
CC(C)(C)CC[C@H](c1ccc(C(=O)NCc2nn[nH]n2)cc1)N1C(=O)C(c2cc(Cl)cc(Cl)c2)=N[C@]12CC[C@@H](C(C)(C)C)CC2,inhibition,[1],75%
same,IC50,[2],46 nM
same,IC50,[3],24 nM
same,IC50,[4],130 nM
same,IC50,[5],> 10000 nM
same,clearance,[6],1.4 mL/min/kg
same,clearance,[7],1.8 mL/min/kg
same,clearance,[8],0.3 mL/min/kg
same,clearance,[9],0.6 mL/min/kg
same,Vd,[10],1.3 L/kg
same,Vd,[11],1.3 L/kg
same,Vd,[12],0.1 L/kg
same,Vd,[13],0.4 L/kg
same,half-life,[14],11 h
same,half-life,[15],8.3 h
same,half-life,[16],6.1 h
same,half-life,[17],7.9 h
same,AUC/dose,[18],6 µM·h/mg/kg
same,AUC/dose,[19],2.2 µM·h/mg/kg
same,AUC/dose,[20],30 µM·h/mg/kg
same,AUC/dose,[21],22 µM·h/mg/kg
same,bioavailability,[22],31%
same,bioavailability,[23],15%
same,bioavailability,[24],32%
same,bioavailability,[25],49%
same,Ki,[26],2430 nM
same,IC50,[27],2100 nM
same,Activity,[28],Active
same,Activity,[29],Active
same,concentration at 24 h,[30],430 nM
same,Activity,[31],Active
same,concentration at 8 h,[32],1100 nM
same,concentration at 8 h,[33],4500 nM
same,concentration at 8 h,[34],8500 nM
same,Activity,[35],Non-toxic
same,inhibition,[36],Active
same,inhibition,[37],96%
